Measurements published in patent US20080317857A1, “V-Atpase Inhibitors of Use in the Treatment of Septic Shock” (Brane Discovery S.r.l., priority 2005, published 2008).

Legend:
[1] = test system: PMNs; experiment: Chemoattractant-induced rapid adhesion of PMNs to fibrinogen (CR3 ligand); assay type: cell-based; conditions: Homo sapiens, read-out: Inhibition of Adhesion (%) PMNs (fMLP) (converted); for inhibition at 25 µM: [cpd] 25 μM; for inhibition at 50 µM: [cpd] 50 μM; for inhibition at 100 µM: [cpd] 100 μM
Method: (§1) Adhesion was performed on purified integrin ligands and was evaluated as reported in Constantin G. et al., Immunity, 16, 759-769, 2000. Briefly, primary naïve lymphocytes, polymorphonuclear neutrophils (PMNs) or monocytes were isolated form healthy donors. In other experiments, murine autoreactive T cells were obtained from SJL mice immunized with PLP139-151 as described (Piccio L. et al., J. Immunol. 168, 1940-1949, 2002). Cells were resuspended at 4×10^6/ml in PBS, CaCl2, MgCl2 1 mM, 10% FCS, pH 7.2. Adhesion assays were performed on eighteen well glass slides coated overnight at 4° C. with ligands for CR3 (fibrinogen) or LFA-1 (ICAM-1). 20 μl of cell suspension were added to the wells and stimulated at 37° C. with 5 μl of agonists prior to washing, fixation and computer-assisted enumeration of bound cells.
(§2) Integrin activation was measured as induction of rapid adhesion triggered by the classical chemoattractant N-formyl-L-methionyl-L-leucyl-phenylalanine (fMLP) (100 nM) or by the CC chemokine MIP3β (CCL19, 1 μM). PMNs and monocytes were triggered to adhere to fibrinogen (CR3 ligand); naive human lymphocytes or murine encephalitogenic T cells were triggered to adhere to ICAM-1 (LFA-1 ligand). Triggered adhesion was evaluated after 2 min of stimulation under static conditions. The cells were pretreated at 37° C. for 30-60 min with the indicated concentrations of the test compound. Results are expressed as percentage of inhibition over control (=100%) and are the mean of three experiments in the case of human leukocytes. Results are expressed as mean counts and are the mean counts±S.D of three experiments and are the mean of three experiments in the case of murine encephalitogenic lymphocytes.
(§3) Integrin activation was measured as induction of rapid adhesion triggered by the “classical” chemoattractant fMLP (100 nM) or by the CC chemokine MIP3β(CCL19, 1 μM). PMNs were triggered to adhere to fibrinogen (CR3 ligand); lymphocytes were triggered to adhere to ICAM-1 (LFA-1 ligand).

[2] = test system: Lymphocytes; experiment: Chemokine-induced rapid adhesion of lymphocytes to ICAM-1 (LFA-1 ligand); assay type: cell-based; conditions: Homo sapiens, Lymphocyte, read-out: Inhibition of Adhesion (%) Lymphocytes (MIP3-β) (converted); for inhibition at 25 µM: [cpd] 25 μM; for inhibition at 50 µM: [cpd] 50 μM; for inhibition at 100 µM: [cpd] 100 μM
Method: as §1, §2, §3

[3] = test system: encephalitogenic lymphocytes; experiment: Chemokine-induced adhesion of murine encephalitogenic T cells to ICAM-1; assay type: cell-based, murine (SJL mice); conditions: NT control in the same cell
Method: as §1, §2
Chemokines trigger rapid arrest of lymphocytes in blood vessels through pertussis toxin-sensitive G protein coupled receptors. […] Autoreactive lymphocytes were then stimulated with 1 μM CCL19 (MIP-3beta) for 3 min.

COc1ccc(-c2c3n(c4cc(OC)c(OC)cc24)CCOC3)cc1 [Example 76]
inhibition at 25 µM [1]: 25.6% | inhibition at 50 µM [1]: 35.7% | inhibition at 100 µM [1]: 66.3% | inhibition at 25 µM [2]: 30.1% | inhibition at 50 µM [2]: 40.3% | inhibition at 100 µM [2]: 48.3%

COc1ccc(-c2c3n(c4cc(OC)c(OC)cc24)CCNC3)cc1 [Example 28]
Chemokine-induced Adhesion in encephalitogenic lymphocytes, Mean counts ± S.D., in absence of MIP3-β stimulation ([3]; [cpd] 5 μM): 75.7 ± 9.0 | Chemokine-induced Adhesion in encephalitogenic lymphocytes, Mean counts ± S.D., in presence of MIP3-β stimulation ([3]; [cpd] 5 μM): 127.0 ± 5.0 | Chemokine-induced Adhesion in encephalitogenic lymphocytes, Mean counts ± S.D., in absence of MIP3-β stimulation ([3]; [cpd] 50 μM): 48.6 ± 2.9 | Chemokine-induced Adhesion in encephalitogenic lymphocytes, Mean counts ± S.D., in presence of MIP3-β stimulation ([3]; [cpd] 50 μM): 118.8 ± 10.8 | inhibition at 25 µM [1]: 34.7% | inhibition at 50 µM [1]: 41% | inhibition at 100 µM [1]: 46.5% | inhibition at 25 µM [2]: 16.7% | inhibition at 50 µM [2]: 34.8% | inhibition at 100 µM [2]: 49.1%

COC(=O)c1c(-c2ccc(OC)cc2)c2cc(OC)c(OC)cc2n1CCN1CCCC1 [Example 52]
Chemokine-induced Adhesion in encephalitogenic lymphocytes, Mean counts ± S.D., in absence of MIP3-β stimulation ([3]; [cpd] 1 μM): 51.9 ± 3.9 | Chemokine-induced Adhesion in encephalitogenic lymphocytes, Mean counts ± S.D., in presence of MIP3-β stimulation ([3]; [cpd] 1 μM): 118.9 ± 4.0 | Chemokine-induced Adhesion in encephalitogenic lymphocytes, Mean counts ± S.D., in absence of MIP3-β stimulation ([3]; [cpd] 5 μM): 31.8 ± 3.1 | Chemokine-induced Adhesion in encephalitogenic lymphocytes, Mean counts ± S.D., in presence of MIP3-β stimulation ([3]; [cpd] 5 μM): 103.2 ± 10.2 | Chemokine-induced Adhesion in encephalitogenic lymphocytes, Mean counts ± S.D., in absence of MIP3-β stimulation ([3]; [cpd] 50 μM): 24.9 ± 12.8 | Chemokine-induced Adhesion in encephalitogenic lymphocytes, Mean counts ± S.D., in presence of MIP3-β stimulation ([3]; [cpd] 50 μM): 82.3 ± 8.1 | inhibition at 25 µM [1]: 0.8% | inhibition at 50 µM [1]: 11% | inhibition at 100 µM [1]: 6.1% | inhibition at 25 µM [2]: 45.9% | inhibition at 50 µM [2]: 53.5% | inhibition at 100 µM [2]: 58.9%

COc1ccc(-c2c(-c3nnco3)[nH]c3cc(OC)c(OC)cc23)cc1 [Example 26]
Chemokine-induced Adhesion in encephalitogenic lymphocytes, Mean counts ± S.D., in absence of MIP3-β stimulation ([3]; [cpd] 5 μM): 93.1 ± 7.5 | Chemokine-induced Adhesion in encephalitogenic lymphocytes, Mean counts ± S.D., in presence of MIP3-β stimulation ([3]; [cpd] 5 μM): 125.9 ± 7.2 | Chemokine-induced Adhesion in encephalitogenic lymphocytes, Mean counts ± S.D., in absence of MIP3-β stimulation ([3]; [cpd] 50 μM): 49.8 ± 5.9 | Chemokine-induced Adhesion in encephalitogenic lymphocytes, Mean counts ± S.D., in presence of MIP3-β stimulation ([3]; [cpd] 50 μM): 98.9 ± 12.0 | inhibition at 25 µM [1]: 34.7% | inhibition at 50 µM [1]: 50.5% | inhibition at 100 µM [1]: 57.5% | inhibition at 25 µM [2]: 8.7% | inhibition at 50 µM [2]: 21.9% | inhibition at 100 µM [2]: 26.7%

COc1ccc(-c2c(C#N)n(CCN3CCOCC3)c3cc(OC)c(OC)cc23)cc1 [Example 56]
Chemokine-induced Adhesion in encephalitogenic lymphocytes, Mean counts ± S.D., in absence of MIP3-β stimulation ([3]; [cpd] 5 μM): 64.1 ± 9.9 | Chemokine-induced Adhesion in encephalitogenic lymphocytes, Mean counts ± S.D., in presence of MIP3-β stimulation ([3]; [cpd] 5 μM): 92.3 ± 2.3 | Chemokine-induced Adhesion in encephalitogenic lymphocytes, Mean counts ± S.D., in absence of MIP3-β stimulation ([3]; [cpd] 50 μM): 49.7 ± 3.9 | Chemokine-induced Adhesion in encephalitogenic lymphocytes, Mean counts ± S.D., in presence of MIP3-β stimulation ([3]; [cpd] 50 μM): 79.4 ± 12.1 | inhibition at 25 µM [1]: 3.4% | inhibition at 50 µM [1]: 11.6% | inhibition at 100 µM [1]: 8.7% | inhibition at 25 µM [2]: 0% | inhibition at 50 µM [2]: 12.6% | inhibition at 100 µM [2]: 72.8%

COc1ccc(-c2c(C(N)=O)[nH]c3cc(OC)c(OC)cc23)cc1 [Example 14]
inhibition at 25 µM [1]: 62.8% | inhibition at 50 µM [1]: 83.9% | inhibition at 100 µM [1]: 94.9% | inhibition at 25 µM [2]: 30.9% | inhibition at 50 µM [2]: 70.9% | inhibition at 100 µM [2]: 91.8%

CCCn1c(C#N)c(-c2ccccc2)c2cc(OC)c(OC)cc21 [Example 50]
Chemokine-induced Adhesion in encephalitogenic lymphocytes, Mean counts ± S.D., in absence of MIP3-β stimulation ([3]; [cpd] 5 μM): 81.7 ± 11.9 | Chemokine-induced Adhesion in encephalitogenic lymphocytes, Mean counts ± S.D., in presence of MIP3-β stimulation ([3]; [cpd] 5 μM): 124.5 ± 8.1 | Chemokine-induced Adhesion in encephalitogenic lymphocytes, Mean counts ± S.D., in absence of MIP3-β stimulation ([3]; [cpd] 50 μM): 62.0 ± 4.0 | Chemokine-induced Adhesion in encephalitogenic lymphocytes, Mean counts ± S.D., in presence of MIP3-β stimulation ([3]; [cpd] 50 μM): 92.0 ± 3.0

COc1ccc(-c2c3n(c4cc(OC)c(OC)cc24)CCN(S(=O)(=O)C(C)C)C3)cc1 [Example 68]
Chemokine-induced Adhesion in encephalitogenic lymphocytes, Mean counts ± S.D., in absence of MIP3-β stimulation ([3]; [cpd] 5 μM): 62.3 ± 9.0 | Chemokine-induced Adhesion in encephalitogenic lymphocytes, Mean counts ± S.D., in presence of MIP3-β stimulation ([3]; [cpd] 5 μM): 102.8 ± 5.5 | Chemokine-induced Adhesion in encephalitogenic lymphocytes, Mean counts ± S.D., in absence of MIP3-β stimulation ([3]; [cpd] 50 μM): 33.5 ± 6.0 | Chemokine-induced Adhesion in encephalitogenic lymphocytes, Mean counts ± S.D., in presence of MIP3-β stimulation ([3]; [cpd] 50 μM): 74.3 ± 3.9
